Experiments:
Assay in all cases: relative viability (nuclei count vs DMSO), 5 days (fraction); higher = more cells survive
NCI-H1792 = test system: NCI-H1792
In short: (§1)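 Relative viability was taken as the ratio of nuclei in treated wells to nuclei in vehicle wells. Lung cancer cell lines in 1536-well plates received compounds by pin tool one day after seeding, either one drug alone or a fixed anchor-drug dose plus five library-drug doses (not always all listed) in √10 steps. Nuclei were counted on 4× images after 5 days of treatment, and values are medians of duplicate plates.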

NCI-H2085 = test system: NCI-H2085
In short: as §1

LU99A = test system: LU99A
In short: as §1

SK-LU-1 = test system: SK-LU-1
In short: as §1

LC-2-ad = test system: LC-2-ad
In short: as §1

NCI-H2170 = test system: NCI-H2170
In short: as §1

SW 900 = test system: SW 900
In short: as §1

UMC-11 = test system: UMC-11
In short: as §1

HCC-78 = test system: HCC-78
In short: as §1

NCI-H1975 = test system: NCI-H1975
In short: as §1

LCLC-97TM1 = test system: LCLC-97TM1
In short: as §1

NCI-H1915 = test system: NCI-H1915
In short: as §1

EPLC-272H = test system: EPLC-272H
In short: as §1

HCC-366 = test system: HCC-366
In short: as §1

COR-L 105 = test system: COR-L 105
In short: as §1

A-427 = test system: A-427
In short: as §1

NCI-H1944 = test system: NCI-H1944
In short: as §1

NCI-H1793 = test system: NCI-H1793
In short: as §1

NCI-H358 = test system: NCI-H358
In short: as §1

HOP-62 = test system: HOP-62
In short: as §1

LXF-289 = test system: LXF-289
In short: as §1

NCI-H460 = test system: NCI-H460
In short: as §1

NCI-H1755 = test system: NCI-H1755
In short: as §1

NC(=O)Nc1cc(-c2cccc(F)c2)sc1C(=O)N[C@H]1CCCNC1 [AZD7762] + COc1cccc2cc(-c3nc([C@H]4CC[C@H](C(=O)O)CC4)n4ncnc(N)c34)[nH]c12 [OSI-027] (partner 0.5 µM)
relative viability (NCI-H1792; first compound 0.01 µM): 0.832 | relative viability (NCI-H1792; first compound 0.03162 µM): 0.848 | relative viability (NCI-H1792; first compound 0.1 µM): 0.811 | relative viability (NCI-H1792; first compound 0.3162 µM): 0.867 | relative viability (NCI-H1792; first compound 1 µM): 0.965 | relative viability (NCI-H2085; first compound 0.01 µM): 0.603 | relative viability (NCI-H2085; first compound 0.03162 µM): 0.871 | relative viability (NCI-H2085; first compound 0.1 µM): 0.836 | relative viability (NCI-H2085; first compound 0.3162 µM): 0.765 | relative viability (NCI-H2085; first compound 1 µM): 0.554 | relative viability (LU99A; first compound 0.01 µM): 0.323 | relative viability (LU99A; first compound 0.03162 µM): 0.365 | relative viability (LU99A; first compound 0.1 µM): 0.352 | relative viability (LU99A; first compound 0.3162 µM): 0.326 | relative viability (LU99A; first compound 1 µM): 0.217 | relative viability (SK-LU-1; first compound 0.01 µM): 0.35 | relative viability (SK-LU-1; first compound 0.03162 µM): 0.384 | relative viability (SK-LU-1; first compound 0.1 µM): 0.203 | relative viability (SK-LU-1; first compound 0.3162 µM): 0.136 | relative viability (SK-LU-1; first compound 1 µM): 0.157 | relative viability (LC-2-ad; first compound 0.01 µM): 0.911 | relative viability (LC-2-ad; first compound 0.03162 µM): 1 | relative viability (LC-2-ad; first compound 0.1 µM): 0.816 | relative viability (LC-2-ad; first compound 0.3162 µM): 0.8 | relative viability (LC-2-ad; first compound 1 µM): 0.543 | relative viability (NCI-H2170; first compound 0.01 µM): 0.637 | relative viability (NCI-H2170; first compound 0.03162 µM): 0.734 | relative viability (NCI-H2170; first compound 0.1 µM): 0.807 | relative viability (NCI-H2170; first compound 0.3162 µM): 0.8 | relative viability (NCI-H2170; first compound 1 µM): 0.707 | relative viability (SW 900; first compound 0.01 µM): 0.609 | relative viability (SW 900; first compound 0.03162 µM): 0.623 | relative viability (SW 900; first compound 0.1 µM): 0.539 | relative viability (SW 900; first compound 0.3162 µM): 0.501 | relative viability (SW 900; first compound 1 µM): 0.263 | relative viability (UMC-11; first compound 0.01 µM): 0.484 | relative viability (UMC-11; first compound 0.03162 µM): 0.442 | relative viability (UMC-11; first compound 0.1 µM): 0.43 | relative viability (UMC-11; first compound 0.3162 µM): 0.33 | relative viability (UMC-11; first compound 1 µM): 0.241 | relative viability (HCC-78; first compound 0.01 µM): 0.43 | relative viability (HCC-78; first compound 0.03162 µM): 0.452 | relative viability (HCC-78; first compound 0.1 µM): 0.453 | relative viability (HCC-78; first compound 0.3162 µM): 0.357 | relative viability (HCC-78; first compound 1 µM): 0.346 | relative viability (NCI-H1975; first compound 0.01 µM): 0.687 | relative viability (NCI-H1975; first compound 0.03162 µM): 0.73 | relative viability (NCI-H1975; first compound 0.1 µM): 0.637 | relative viability (NCI-H1975; first compound 0.3162 µM): 0.615 | relative viability (NCI-H1975; first compound 1 µM): 0.397 | relative viability (LCLC-97TM1; first compound 0.01 µM): 0.582 | relative viability (LCLC-97TM1; first compound 0.03162 µM): 0.577 | relative viability (LCLC-97TM1; first compound 0.1 µM): 0.511 | relative viability (LCLC-97TM1; first compound 0.3162 µM): 0.617 | relative viability (LCLC-97TM1; first compound 1 µM): 0.44 | relative viability (NCI-H1915; first compound 0.01 µM): 0.629 | relative viability (NCI-H1915; first compound 0.03162 µM): 0.635 | relative viability (NCI-H1915; first compound 0.1 µM): 0.64 | relative viability (NCI-H1915; first compound 0.3162 µM): 0.638 | relative viability (NCI-H1915; first compound 1 µM): 0.571 | relative viability (EPLC-272H; first compound 0.01 µM): 0.299 | relative viability (EPLC-272H; first compound 0.03162 µM): 0.332 | relative viability (EPLC-272H; first compound 0.1 µM): 0.271 | relative viability (EPLC-272H; first compound 0.3162 µM): 0.27 | relative viability (EPLC-272H; first compound 1 µM): 0.115 | relative viability (HCC-366; first compound 0.01 µM): 1.02 | relative viability (HCC-366; first compound 0.03162 µM): 0.896 | relative viability (HCC-366; first compound 0.1 µM): 0.985 | relative viability (HCC-366; first compound 0.3162 µM): 0.869 | relative viability (HCC-366; first compound 1 µM): 0.122 | relative viability (COR-L 105; first compound 0.01 µM): 0.636 | relative viability (COR-L 105; first compound 0.03162 µM): 0.821 | relative viability (COR-L 105; first compound 0.1 µM): 0.543 | relative viability (COR-L 105; first compound 0.3162 µM): 0.472 | relative viability (COR-L 105; first compound 1 µM): 0.406 | relative viability (A-427; first compound 0.01 µM): 0.484 | relative viability (A-427; first compound 0.03162 µM): 0.498 | relative viability (A-427; first compound 0.1 µM): 0.343 | relative viability (A-427; first compound 0.3162 µM): 0.353 | relative viability (A-427; first compound 1 µM): 0.224 | relative viability (NCI-H1944; first compound 0.01 µM): 0.396 | relative viability (NCI-H1944; first compound 0.03162 µM): 0.467 | relative viability (NCI-H1944; first compound 0.1 µM): 0.53 | relative viability (NCI-H1944; first compound 0.3162 µM): 0.525 | relative viability (NCI-H1944; first compound 1 µM): 0.299 | relative viability (NCI-H1793; first compound 0.01 µM): 0.265 | relative viability (NCI-H1793; first compound 0.03162 µM): 0.268 | relative viability (NCI-H1793; first compound 0.1 µM): 0.308 | relative viability (NCI-H1793; first compound 0.3162 µM): 0.299 | relative viability (NCI-H1793; first compound 1 µM): 0.25 | relative viability (NCI-H358; first compound 0.01 µM): 0.956 | relative viability (NCI-H358; first compound 0.03162 µM): 0.838 | relative viability (NCI-H358; first compound 0.1 µM): 0.839 | relative viability (NCI-H358; first compound 0.3162 µM): 0.75 | relative viability (NCI-H358; first compound 1 µM): 0.461 | relative viability (HOP-62; first compound 0.01 µM): 0.759 | relative viability (HOP-62; first compound 0.03162 µM): 0.89 | relative viability (HOP-62; first compound 0.1 µM): 0.743 | relative viability (HOP-62; first compound 0.3162 µM): 0.71 | relative viability (HOP-62; first compound 1 µM): 0.552 | relative viability (LXF-289; first compound 0.01 µM): 0.61 | relative viability (LXF-289; first compound 0.03162 µM): 0.835 | relative viability (LXF-289; first compound 0.1 µM): 0.886 | relative viability (LXF-289; first compound 0.3162 µM): 0.864 | relative viability (LXF-289; first compound 1 µM): 0.971 | relative viability (NCI-H460; first compound 0.01 µM): 0.861 | relative viability (NCI-H460; first compound 0.03162 µM): 0.751 | relative viability (NCI-H460; first compound 0.1 µM): 0.649 | relative viability (NCI-H460; first compound 0.3162 µM): 0.463 | relative viability (NCI-H460; first compound 1 µM): 0.0347 | relative viability (NCI-H1755; first compound 0.01 µM): 0.826 | relative viability (NCI-H1755; first compound 0.03162 µM): 0.845 | relative viability (NCI-H1755; first compound 0.1 µM): 0.722 | relative viability (NCI-H1755; first compound 0.3162 µM): 0.712 | relative viability (NCI-H1755; first compound 1 µM): 0.44
